ChEMBL document CHEMBL4138123, “Design, synthesis and biological evaluation of novel pyrazolochalcones as potential modulators of PI3K/Akt/mTOR pathway and inducers of apoptosis in breast cancer cells” (Eur J Med Chem, 2017)

Experiments:
Format in all cases: functional
[1] = system: K562; assay: Cytotoxicity against human K562 cells assessed as growth inhibition after 48 hrs by sulforhodamine B assay; details: K562, 48 h
[2] = system: NCI-H226; assay: Cytotoxicity against human NCI-H226 cells assessed as growth inhibition after 48 hrs by sulforhodamine B assay; details: NCI-H226, 48 h
[3] = system: COLO 205; assay: Cytotoxicity against human COLO205 cells assessed as growth inhibition after 48 hrs by sulforhodamine B assay; details: COLO 205, 48 h
[4] = system: U-251; assay: Cytotoxicity against human U251 cells assessed as growth inhibition after 48 hrs by sulforhodamine B assay; details: U-251, 48 h
[5] = system: Malme-3M; assay: Cytotoxicity against human MALME-3M cells assessed as growth inhibition after 48 hrs by sulforhodamine B assay
[6] = system: OVCAR-5; assay: Cytotoxicity against human OVCAR5 cells assessed as growth inhibition after 48 hrs by sulforhodamine B assay; details: OVCAR-5, 48 h
[7] = system: ACHN; assay: Cytotoxicity against human ACHN cells assessed as growth inhibition after 48 hrs by sulforhodamine B assay
[8] = system: TK-10; assay: Cytotoxicity against human TK10 cells assessed as growth inhibition after 48 hrs by sulforhodamine B assay; details: TK-10, 48 h
[9] = system: NCI/ADR-RES; assay: Cytotoxicity against human NCI/ADR-RES cells assessed as cell growth at 0.01 uM after 48 hrs by sulforhodamine B assay relative to control; details: read-out: Activity
[10] = system: UACC-62; assay: Cytotoxicity against human UACC62 cells assessed as cell growth at 0.01 uM after 48 hrs by sulforhodamine B assay relative to control; details: UACC-62, 48 h, read-out: Activity
[11] = system: M14; assay: Cytotoxicity against human M14 cells assessed as cell growth at 0.01 uM after 48 hrs by sulforhodamine B assay relative to control; details: M14, 48 h, read-out: Activity
[12] = system: SNB-19; assay: Cytotoxicity against human SNB19 cells assessed as cell growth at 0.01 uM after 48 hrs by sulforhodamine B assay relative to control; details: SNB-19, 48 h, read-out: Activity
[13] = system: HT-29; assay: Cytotoxicity against human HT-29 cells assessed as cell growth at 0.01 uM after 48 hrs by sulforhodamine B assay relative to control; details: HT-29, 48 h, read-out: Activity
[14] = system: HCT-116; assay: Cytotoxicity against human HCT116 cells assessed as cell growth at 0.01 uM after 48 hrs by sulforhodamine B assay relative to control; details: HCT-116, 48 h, read-out: Activity
[15] = system: NCI-H460; assay: Cytotoxicity against human NCI-H460 cells assessed as cell growth at 0.01 uM after 48 hrs by sulforhodamine B assay relative to control; details: NCI-H460, 48 h, read-out: Activity
[16] = system: HOP-62; assay: Cytotoxicity against human HOP62 cells assessed as cell growth at 0.01 uM after 48 hrs by sulforhodamine B assay relative to control; details: HOP-62, 48 h, read-out: Activity
[17] = system: MCF7; assay: Cytotoxicity against human MCF7 cells assessed as cell growth at 0.01 uM after 48 hrs by sulforhodamine B assay relative to control; details: MCF7, 48 h, read-out: Activity
[18] = system: RPMI-8226; assay: Cytotoxicity against human RPMI8226 cells assessed as cell growth at 0.1 uM after 48 hrs by sulforhodamine B assay relative to control; details: RPMI-8226, 48 h, read-out: Activity
[19] = system: SK-MEL-28; assay: Cytotoxicity against human SK-MEL-28 cells assessed as cell growth at 0.1 uM after 48 hrs by sulforhodamine B assay relative to control; details: SK-MEL-28, 48 h, read-out: Activity
[20] = system: DU-145; assay: Cytotoxicity against human DU145 cells assessed as cell growth at 0.1 uM after 48 hrs by sulforhodamine B assay relative to control; details: DU-145, 48 h, read-out: Activity
[21] = system: BT-549; assay: Cytotoxicity against human BT549 cells assessed as cell growth at 0.1 uM after 48 hrs by sulforhodamine B assay relative to control; details: BT-549, 48 h, read-out: Activity
[22] = system: HL-60(TB); assay: Cytotoxicity against human HL-60(TB) cells assessed as cell growth at 1 uM after 48 hrs by sulforhodamine B assay relative to control; details: HL-60, 48 h, read-out: Activity
[23] = system: NCI-H226; assay: Cytotoxicity against human NCI-H226 cells assessed as cell growth at 1 uM after 48 hrs by sulforhodamine B assay relative to control; details: NCI-H226, 48 h, read-out: Activity
[24] = system: Malme-3M; assay: Cytotoxicity against human MALME-3M cells assessed as cell growth at 1 uM after 48 hrs by sulforhodamine B assay relative to control; details: read-out: Activity
[25] = system: OVCAR-5; assay: Cytotoxicity against human OVCAR5 cells assessed as cell growth at 1 uM after 48 hrs by sulforhodamine B assay relative to control; details: OVCAR-5, 48 h, read-out: Activity
[26] = system: BT-549; assay: Cytotoxicity against human BT549 cells assessed as cell growth at 1 uM after 48 hrs by sulforhodamine B assay relative to control; details: BT-549, 48 h, read-out: Activity
[27] = system: T47D; assay: Cytotoxicity against human T47D cells assessed as cell growth at 1 uM after 48 hrs by sulforhodamine B assay relative to control; details: read-out: Activity
[28] = system: MDA-MB-468; assay: Cytotoxicity against human MDA-MB-468 cells assessed as cell growth at 1 uM after 48 hrs by sulforhodamine B assay relative to control; details: MDA-MB-468, 48 h, read-out: Activity
[29] = system: SF-268; assay: Cytotoxicity against human SF268 cells assessed as cell growth at 10 uM after 48 hrs by sulforhodamine B assay relative to control; details: SF-268, 48 h, read-out: Activity
[30] = system: 786-0; assay: Cytotoxicity against human 786-0 cells assessed as cell growth at 10 uM after 48 hrs by sulforhodamine B assay relative to control; details: 786-0, 48 h, read-out: Activity
[31] = system: ACHN; assay: Cytotoxicity against human ACHN cells assessed as cell growth at 10 uM after 48 hrs by sulforhodamine B assay relative to control; details: read-out: Activity
[32] = system: PC-3; assay: Cytotoxicity against human PC3 cells assessed as cell growth at 10 uM after 48 hrs by sulforhodamine B assay relative to control; details: PC-3, 48 h, read-out: Activity
[33] = system: BT-549; assay: Cytotoxicity against human BT549 cells assessed as cell growth at 10 uM after 48 hrs by sulforhodamine B assay relative to control; details: BT-549, 48 h, read-out: Activity
[34] = system: T47D; assay: Cytotoxicity against human T47D cells assessed as cell growth at 10 uM after 48 hrs by sulforhodamine B assay relative to control; details: read-out: Activity
[35] = system: ACHN; assay: Cytotoxicity against human ACHN cells assessed as cell growth at 100 uM after 48 hrs by sulforhodamine B assay relative to control; details: read-out: Activity

COc1cc(C(=O)/C=C/c2cc(-c3ccc4c(c3)OCO4)n[nH]2)cc(OC)c1OC
GI50 [1]: 2.17 µM
LC50 (concentration killing 50% of cells) [1]: > 100 µM
TGI [1]: > 100 µM
GI50 [2]: 1.52 µM
LC50 (concentration killing 50% of cells) [2]: > 100 µM
TGI [2]: 4.25 µM
GI50 [3]: 2.08 µM
LC50 [3]: 12.6 µM
TGI [3]: 4.66 µM
GI50 [4]: 1.21 µM
LC50 [4]: 5.13 µM
TGI [4]: 2.49 µM
GI50 [5]: 1.85 µM
LC50 [5]: 15.3 µM
TGI [5]: 4.69 µM
GI50 [6]: 2.63 µM
LC50 [6]: 76.8 µM
TGI [6]: 9.6 µM
GI50 [7]: 2.2 µM
LC50 [7]: 18.8 µM
TGI [7]: 4.95 µM
GI50 [8]: 2.9 µM
LC50 [8]: 25.6 µM
TGI [8]: 7.17 µM
growth at 0.01 µM [9]: 95%
growth at 0.01 µM [10]: 96%
growth at 0.01 µM [11]: 98%
growth at 0.01 µM [12]: 92%
growth at 0.01 µM [13]: 103%
growth at 0.01 µM [14]: 101%
growth at 0.01 µM [15]: 99%
growth at 0.01 µM [16]: 100%
growth at 0.01 µM [17]: 89%
growth at 0.1 µM [18]: 93%
growth at 0.1 µM [19]: 99%
growth at 0.1 µM [20]: 99%
growth at 0.1 µM [21]: 97%
growth at 1 µM [22]: 85%
growth at 1 µM [23]: 70%
growth at 1 µM [24]: 83%
growth at 1 µM [25]: 87%
growth at 1 µM [26]: 89%
growth at 1 µM [27]: 68%
growth at 1 µM [28]: 68%
growth at 10 µM [29]: -12%
growth at 10 µM [30]: -84%
growth at 10 µM [31]: -43%
growth at 10 µM [32]: -46%
growth at 10 µM [33]: -38%
growth at 10 µM [34]: -34%
growth at 100 µM [35]: -68%

COc1cc2c(cc1OC)C(=O)/C(=C/c1cc(-c3ccc4c(c3)OCO4)n[nH]1)C2
GI50 [1]: 1.59 µM
LC50 (concentration killing 50% of cells) [1]: > 100 µM
TGI [1]: > 100 µM
GI50 [2]: 1.55 µM
TGI [2]: 3.32 µM
GI50 [3]: 1.7 µM
LC50 [3]: 5.68 µM
TGI [3]: 3.11 µM
GI50 [4]: 1.09 µM
LC50 [4]: 4.9 µM
TGI [4]: 2.31 µM
GI50 [5]: 1.74 µM
LC50 [5]: 7.43 µM
TGI [5]: 3.6 µM
GI50 [6]: 1.56 µM
LC50 [6]: 5.79 µM
TGI [6]: 3 µM
GI50 [7]: 1.73 µM
LC50 [7]: 6.04 µM
TGI [7]: 3.23 µM
GI50 [8]: 1.89 µM
LC50 [8]: 5.96 µM
TGI [8]: 3.36 µM
growth at 0.01 µM [9]: 101%
growth at 0.01 µM [10]: 100%
growth at 0.01 µM [11]: 99%
growth at 0.01 µM [12]: 97%
growth at 0.01 µM [13]: 98%
growth at 0.01 µM [14]: 105%
growth at 0.01 µM [15]: 99%
growth at 0.01 µM [16]: 92%
growth at 0.01 µM [17]: 96%
growth at 0.1 µM [18]: 93%
growth at 0.1 µM [19]: 101%
growth at 0.1 µM [20]: 101%
growth at 0.1 µM [21]: 91%
growth at 1 µM [22]: 86%
growth at 1 µM [23]: 79%
growth at 1 µM [24]: 88%
growth at 1 µM [25]: 84%
growth at 1 µM [26]: 88%
growth at 1 µM [27]: 69%
growth at 1 µM [28]: 54%
growth at 10 µM [29]: -75%
growth at 10 µM [30]: -98%
growth at 10 µM [31]: -90%
growth at 10 µM [32]: -75%
growth at 10 µM [33]: -94%
growth at 10 µM [34]: -90%
growth at 100 µM [35]: -89%
